Patent US20240156800A1, “EP300 DEGRADER AND USES THEREOF IN NEUROBLASTOMA” (DANA-FARBER CANCER INSTITUTE, INC., priority 2021, published 2024)

Tests used:
[1] = tested on: pro- and anti-apoptotic mRNA transcripts; assay: ERCC spike-in RNA-seq of treated Kelly cells; assay type: cell-based, human; details: 500 nM, 24 h
Experimental: For in vitro analyses, total RNA was extracted from control […] or JQAD1 treated Kelly cells using TRIzolTM reagent (Ambion). Prior to extraction, exogenous spike-in of synthetic External RNA Control Consortium (ERCC) RNA controls were added based on cell number (Ambion). Samples were treated with RNAse-free DNAse I and spin purified using the Qiagen® RNeasy Kit (Qiagen®). Purified RNA samples were subjected to library construction with poly-adenylation preparation and sequencing using the Illumina NextSeq® 500 (paired end, 75bp reads). RNA-seq reads were aligned to a reference index containing the sequences of the hg19 revision of the human reference genome and the ERCC spike-in probes using hisat 2.1.0. Expression was quantified using sorted BAMs, a gene reference built using ERCC sizes and RefSeq genes downloaded Jul. 15, 2017, and htseq-count with parameters -I gene_id- stranded=reverse -f bam -m intersection-strict. Read counts were converted to transcripts per million (TPM) and used for cell number-normalization. The expression of all RefSeq genes and ERCC probes was floored at 0.01 and a pseudocount of 0.1 was added to all entries. Values were normalized by equilibrating the expression of the ERCC probes among experiments using normalize.loess from the affy R package. The ERCC-normalized expression of each gene after 24 h of either […] or JQAD1 treatment was compared against its expression in dimethyl sulfoxide (DMSO) treated samples to create two-fold changes.

[2] = tested on: cleaved caspase-3 and cleaved PARP1; assay: Western blotting of apoptosis markers; assay type: cell-based, human
Experimental: (§1) Cells growing in culture were lysed for whole cell lysates as described in Durbin et al. Nat. Genet. 50:1240-1246 (2018) and Wang et al. Nat. Commun. 10:5622 (2019). Nuclear lysates were prepared using the NE-PER® nuclear lysate kit (Thermo Scientific™) according to the manufacturer's protocol. Chromatin lysates were prepared with the total histone extraction kit (Epigentek). Briefly, equivalent amounts of protein were resolved by western blotting using 4-12% Bis-Tris NuPAGE™ gels (Thermo-Fisher Scientific) prior to transfer, and immunoblotting using primary antibodies to: MYCN (1:1000, Cell Signaling Technology®), H3K27ac (1:1000, Abcam), total H3 (1:1000, Cell Signaling Technology®), EP300 (1:1000, Abcam), CBP (1:500, Cell Signaling Technology®), Cas9 (1:1000, Cell Signaling Technology®), cleaved-PARP1 (1:1000, Cell Signaling Technology), cleaved Caspase-3 (1:1000, Cell Signaling Technology®), β-actin (1:1000, Cell Signaling Technology®), GATA3 (1:1000, EMD Millipore™), TFAP2β (1:1000, Cell Signaling Technology®), Vinculin (1:1000, EMD Millipore™), CRBN (1:1000, Cell Signaling Technology®), HAND2 (1:1000, Santa Cruz Biotechnology). Secondary antibodies were horseradish peroxidase (HRP)-conjugated anti-rabbit or anti-mouse (1:5000, Santa Cruz Biotechnology), incubated prior to exposure to enhanced chemiluminescence reagents (GE, Amersham). For immunoprecipitation, equal amounts of protein were diluted in buffer C as described in Mansour et al. Science 346:1373-1377 (2014) and incubated with antibodies covalently conjugated to Dynabeads™ M-270 beads (Thermo-Fisher Scientific) overnight according to the manufacturer's directions. Antibodies used included: H3K27ac, EP300 (Abcam), CBP, TFAP2β (Cell Signaling Technology®), rabbit immunoglobulin G (IgG) (Santa Cruz Biotechnology®). Immunoprecipitated protein was isolated as per the manufacturer's directions and subjected to western blotting, as described above, or mass spectrometry.

His-tagged CRBN = His-tagged CRBN (Homo sapiens, UniProt Q96SW2); assay: AlphaLISA assay with biotinylated pomalidomide and His-tagged CRBN; assay type: binding; details: competition with biotinylated pomalidomide
Experimental: To determine whether JQAD1 interacts with the E3 ligase receptor CRBN, the AlphaLISA® platform was used to perform AlphaLISA® fluorescent assays using biotinylated pomalidomide bound to beads and His-tagged CRBN (Yasgar et al. Methods Mol. Biol. 1439:77-98 (2016)). […] Next, biotinylated JQAD1 (Biotin-JQAD1, Scheme 2) was synthesized and incubated with Kelly cell lysates, followed by streptavidin-based purification. […] PROTAC®s may acquire preferential specificity for one of two possible target enzymes due to restricted three-dimensional interactions, as noted in Burslem and Crews, Cell 181:102-14 (2020).
Assays were performed with minimal modifications from the manufacturer's protocol (PerkinElmer®, USA). Briefly, a 2× solution of components with final concentrations of CRBN-DDB1 at 50 nM, Ni-coated Acceptor Beads at 20 μg/ml, and 15 nM biotinylated-pomalidomide were added in […] to 384-well plates (AlphaPlate-384, PerkinElmer®, USA). 100 nL of compound in DMSO from stock plates were added by pin transfer using a Janus Workstation (PerkinElmer®, USA). Streptavidin-coated donor beads (20 μg/ml final) were added to the solution, followed by incubation at room temperature for 1 hour, and reading on an Envision 2104 (PerkinElmer®, USA), by the manufacturer's protocol.

[3] = tested on: Kelly-Cas9 control or CRBN knockout cells; assay: CellTiter-Glo assay of Kelly-Cas9 control or CRBN knockout cells; assay type: cell-based, human; details: range of doses, seven days
Experimental: (§2) Cells were infected with lentiviruses encoding sgRNAs or treated with compounds as described. Colony assays were performed by replating cells at 500 cells per well in 6-well dishes and grown in regular growth media for 10 d before 100% methanol fixation, 0.05% crystal violet staining, and quantitation. Experiments were completed in triplicate; data shown are the average of three independent experiments. Cell Titer-Glo® assay was performed as per the manufacturer's instructions (Promega®). Briefly, 1000 cells/well were plated into 96-well plates and treated with a range of compound dosing. Cell viability was measured at the noted time points based on luminescence by the Cell Titer-Glo® assay (Promega®) and read on an Envision 2104 (PerkinElmer®, USA) according to the manufacturer's protocol.
sgRNAs targeting individual genes were subcloned by standard methodologies within pLKO.5-EFGP. Kelly, SIMA, BE2C, and NGP cells were infected with lenticas9 followed by blasticidin selection. Stable expression of cas9 was established by western blotting of protein lysates using cas9 antibody (Cell Signaling Technology®). Following infection of pLKO.5-EGFP-sgRNA lentivirus, cells were cultured for the identified times prior to evaluation. BE2C cells were infected with pLC-zsgreen or pLC-CRBN lentiviruses and selected using 500 μg/mL hygromycin (Invitrogen™)

NB cell lines = assay: Colony formation assays of NB cells with EP300/CBP inhibitors; assay type: cell-based, human; details: multiple NB cell lines (Kelly, BE2C, NB69, NGP); compared with C646 and CBP30
Experimental: as §2

H3K27ac = assay: Western blotting of H3K27ac in treated NB cells; assay type: cell-based, human
Experimental: as §1

MYCN = assay: Western blotting of MYCN (whole lysates and chromatin extracts); assay type: cell-based, human
Experimental: as §1

[4] = tested on: Kelly, NGP and BE2C NB cells; assay: Propidium iodide DNA flow cytometry (cell cycle, sub-G1); assay type: cell-based, human
Experimental: Cells were infected with lentiviruses encoding single guide RNAs (sgRNAs) or treated with compounds as described for the noted length of time. Cells were then liberated from adhesion to the plate using a sterile spatula (Coming®) followed by centrifugation, aspiration of media, and resuspension in hypotonic citrate-propidium iodide (PI) solution for 30 minutes at 37° C. (Tate et al. Cytometry 4:211-215 (1983)). Nuclei were stabilized using 5M NaCl prior to analysis on a FACSAria™ II (BD Biosciences). Analysis of cell cycle phases was performed using FlowJo® v10.7 (BD Biosciences).

[5] = BE2C 1 μM, Kelly 500 nM, seven days

His-tagged CRBN, sequence (Q96SW2 whole entry): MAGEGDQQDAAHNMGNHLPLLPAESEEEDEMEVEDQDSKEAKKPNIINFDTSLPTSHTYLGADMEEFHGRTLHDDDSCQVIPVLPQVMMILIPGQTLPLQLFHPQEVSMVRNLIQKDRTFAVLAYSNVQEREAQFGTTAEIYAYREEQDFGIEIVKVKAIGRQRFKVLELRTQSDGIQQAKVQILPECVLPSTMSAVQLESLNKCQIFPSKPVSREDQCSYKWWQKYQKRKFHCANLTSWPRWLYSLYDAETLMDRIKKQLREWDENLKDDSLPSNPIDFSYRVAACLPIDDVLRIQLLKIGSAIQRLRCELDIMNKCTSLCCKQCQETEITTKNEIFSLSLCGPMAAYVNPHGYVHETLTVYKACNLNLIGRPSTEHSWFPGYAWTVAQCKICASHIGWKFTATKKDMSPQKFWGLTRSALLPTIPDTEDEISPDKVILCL
His-tagged CRBN, sequence (Q16531 whole entry partner): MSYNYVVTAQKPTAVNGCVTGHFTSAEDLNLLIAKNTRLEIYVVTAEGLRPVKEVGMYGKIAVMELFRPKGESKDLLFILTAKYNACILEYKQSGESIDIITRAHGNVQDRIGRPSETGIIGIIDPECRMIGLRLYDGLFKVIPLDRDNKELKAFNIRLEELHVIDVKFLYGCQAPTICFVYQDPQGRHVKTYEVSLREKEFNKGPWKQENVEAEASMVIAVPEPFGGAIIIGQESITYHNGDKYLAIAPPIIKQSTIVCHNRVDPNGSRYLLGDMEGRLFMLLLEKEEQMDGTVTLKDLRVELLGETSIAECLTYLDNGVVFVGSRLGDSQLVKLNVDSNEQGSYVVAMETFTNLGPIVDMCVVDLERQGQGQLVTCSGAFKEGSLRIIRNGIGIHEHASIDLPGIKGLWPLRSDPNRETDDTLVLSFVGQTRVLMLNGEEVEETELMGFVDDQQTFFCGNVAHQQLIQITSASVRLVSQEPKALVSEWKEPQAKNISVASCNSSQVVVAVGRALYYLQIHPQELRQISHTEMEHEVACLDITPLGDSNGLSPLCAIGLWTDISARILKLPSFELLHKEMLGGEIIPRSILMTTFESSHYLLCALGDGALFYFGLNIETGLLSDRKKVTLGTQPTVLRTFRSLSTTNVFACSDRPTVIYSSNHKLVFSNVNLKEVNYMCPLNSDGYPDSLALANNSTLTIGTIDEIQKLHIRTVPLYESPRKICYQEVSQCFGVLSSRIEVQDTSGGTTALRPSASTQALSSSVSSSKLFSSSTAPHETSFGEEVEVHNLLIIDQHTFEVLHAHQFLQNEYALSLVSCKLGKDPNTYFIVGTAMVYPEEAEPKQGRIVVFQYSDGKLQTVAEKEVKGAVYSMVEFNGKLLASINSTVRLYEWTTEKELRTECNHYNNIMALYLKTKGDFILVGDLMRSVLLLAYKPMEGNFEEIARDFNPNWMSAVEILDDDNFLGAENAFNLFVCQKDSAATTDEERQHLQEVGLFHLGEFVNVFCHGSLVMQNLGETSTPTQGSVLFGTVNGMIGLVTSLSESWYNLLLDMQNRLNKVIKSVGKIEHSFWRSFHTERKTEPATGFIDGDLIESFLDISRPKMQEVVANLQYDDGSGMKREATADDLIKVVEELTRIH

interaction with CRBN (His-tagged CRBN)	Structure (SMILES)	transcript levels of BIM, BID, PUMA, BAX, BCL2 and MCL1 [1]	cleaved caspase 3 and PARP1 after prolonged treatment [2, 5]	apoptosis: cleavage of caspase-3 and PARP1 ([2]; Kelly (1 μM) and NGP (2.5 μM) cells, 12-36 h)	growth of CRBN-knockout Kelly cells [3]	growth of control-edited Kelly cells [3]	reduction of neuroblastoma colony formation (NB cell lines)	H3K27Ac modification after prolonged treatment (H3K27ac; [5])	H3K27ac modification (H3K27ac; Kelly cells, 24 h)	MYCN expression after prolonged treatment (MYCN; [5])	chromatin-bound MYCN (MYCN; Kelly cells, 0.5 and 1 μM, 24 h, chromatin extracts)	cell cycle effect ([4]; BE2C, Kelly, NGP cells, within 24 hours)	cell cycle / subG1 effect ([4]; Kelly and NGP cells)
did not	CNC(=O)Nc1ccc2c(c1)CC[C@@]21OC(=O)N(CC(=O)N(Cc2ccc(F)cc2)[C@@H](C)C(F)(F)F)C1=O [A485]	unaffected	induction of cleaved caspase 3 and poly [ADP-ribose] polymerase 1 (PARP1)	little effect on these parameters	equivalently inhibited the growth of both CRBN-knockout cells and controls	equivalently inhibited the growth of both CRBN-knockout cells and controls	most potent compound in reducing neuroblastoma colony formation	global loss of the H3K27Ac modification	loss of H3K27ac	loss of MYCN expression	did not show MYCN loss from chromatin extracts up to 1.0 μM	G1 cell cycle arrest	G1 cell cycle arrest
efficiently interacted with CRBN	Nc1cccc2c1C(=O)N(C1CCC(=O)NC1=O)C2=O (centres unmarked) [pomalidomide]												
